Data taken from patent US20210228545A1, “METHODS OF TREATING CONDITIONS RELATED TO THE S1P1 RECEPTOR” (Arena Pharmaceuticals, Inc., priority 2018, published 2021).

What was measured:
[1] = spared nerve injury model; cited from earlier work
[2] = prophylactic oral 1 mg/kg, three times a week; cited from earlier work
[3] = in vivo; cited from earlier work
[4] = short-term high dose; cited from earlier work
[5] = murine; cited from earlier work
[6] = Phase II, relapsing-remitting multiple sclerosis; cited from earlier work
[7] = mice; cited from earlier work
[8] = target: T1, CYP2C8 (Homo sapiens, UniProt P10632); assay: CYP reaction phenotyping in HLMs with selective chemical inhibitor; type: in vitro ADME
T1 construct: human liver microsomes from a pool of 200 individuals; from tissue; host or cells: human liver microsomes, pool of 200 individuals
T1 sequence (P10632 1-490): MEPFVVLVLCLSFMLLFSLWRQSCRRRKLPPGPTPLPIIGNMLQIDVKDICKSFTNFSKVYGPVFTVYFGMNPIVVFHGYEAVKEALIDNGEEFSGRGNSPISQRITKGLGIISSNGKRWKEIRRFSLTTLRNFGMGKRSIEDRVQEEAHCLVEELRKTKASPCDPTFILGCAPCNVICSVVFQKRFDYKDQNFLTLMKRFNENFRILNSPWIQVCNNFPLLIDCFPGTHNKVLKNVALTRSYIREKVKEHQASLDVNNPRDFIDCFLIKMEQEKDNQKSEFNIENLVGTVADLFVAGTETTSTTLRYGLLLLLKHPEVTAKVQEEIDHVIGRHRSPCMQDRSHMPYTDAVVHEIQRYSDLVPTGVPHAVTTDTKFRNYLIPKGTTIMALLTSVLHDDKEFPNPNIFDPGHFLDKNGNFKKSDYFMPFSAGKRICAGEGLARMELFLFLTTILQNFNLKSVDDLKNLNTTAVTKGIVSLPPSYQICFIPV

Row | Inhibition of conversion of Compound 1 to first oxidative metabolite [8] | Inhibition of conversion of Compound 1 to ketone metabolite [8] | Inhibition of conversion of Compound 1 to second oxidative metabolite [8] | Structure (SMILES) | Effect on nociceptive behavior [1] | Development of EAMG [2] | Adverse event in clinical trials [3] | Effect on ocular infiltrates [4] | Effect on contact hypersensitivity [5] | Effect on MRI lesions and clinical disease activity [6] | Effect on ovariectomy-induced osteoporosis [7]
1 | – | – | – | CCCCCCCCc1ccc(CCC(N)(CO)CO)cc1 [FTY720] | reduce the nociceptive behavior | completely prevented | transient asymptomatic bradycardia | rapidly reduced ocular infiltrates | impair initiation | reduce the number of lesions detected by magnetic resonance imaging (MRI) and clinical disease activity | relieved ovariectomy-induced osteoporosis
2 | 85% | 60% | 47% | Cc1ccc(C)c(OCCCC(C)(C)C(=O)O)c1 [gemfibrozil] | – | – | – | – | – | – | –
